In patent EP4818168A1, “FUSED RING COMPOUND, PHARMACEUTICAL COMPOSITION THEREOF AND USE THEREOF” (priority 2023, dated 2025):
Like-named read-outs stand apart in the source and are kept apart here.

How the values were obtained:
[1] = target: T1, AURKA (Homo sapiens, UniProt O14965); type: cell-based
T1 construct: endogenous in cells; host or cells: Jurkat cells
T1 sequence (O14965 1-403): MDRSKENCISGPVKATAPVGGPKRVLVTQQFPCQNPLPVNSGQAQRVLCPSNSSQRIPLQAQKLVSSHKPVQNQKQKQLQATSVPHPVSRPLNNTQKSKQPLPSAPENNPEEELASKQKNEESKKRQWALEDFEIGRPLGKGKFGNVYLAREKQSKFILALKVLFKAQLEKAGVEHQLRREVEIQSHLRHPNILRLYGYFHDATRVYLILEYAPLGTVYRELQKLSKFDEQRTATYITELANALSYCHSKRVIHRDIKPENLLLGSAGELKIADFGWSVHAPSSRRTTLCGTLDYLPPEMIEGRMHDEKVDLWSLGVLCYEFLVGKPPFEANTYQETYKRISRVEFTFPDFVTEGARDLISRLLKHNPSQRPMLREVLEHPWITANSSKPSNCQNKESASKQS
Procedure, shortened: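 AURKA degradation read by western blot: band signal, fluorescent or chemiluminescent, curve-fitted to derive DC50. Cells were Jurkat, plated at 1×10^6 cells/500 µL with compound, then lysed and blotted onto nitrocellulose, primary antibody overnight at 4°C.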

[2] = system: H82 cells; assay: cells; type: cell-based; details: Homo sapiens
Method: CellTiter-Glo (CTG) is a rapid cell viability test method based on ATP detection. […] Adenosine triphosphate (ATP) participates in various enzymatic reactions in organisms and is an indicator of living cell metabolism. Its content directly reflects the number of living cells and cell status. During the experiment, equal volume of CTG reagent is added to the cultured cells to measure the luminescence value. The chemiluminescent signal value is proportional to the amount of ATP, thus reflecting the number of viable cells. Therefore, cell viability can be obtained by detecting the ATP content. Compounds that affect cell viability will inhibit cell viability in a concentration-dependent manner, allowing a curve to be fitted to obtain the IC50 value.
The experimental procedure is as follows: • 11. Place the cell suspension in a 15 mL centrifuge tube, centrifuge at 1000 rpm for 5 min at room temperature, discard the supernatant, and collect the cell pellet. • 12. Resuspend the cell pellet with preheated complete cell culture medium (RPMI1640+10%FBS+1%PS), and use a Countess® automated cell counter to detect cell viability and density. […] Transfer the compound solution to a 96-well plate seeded with cells (final concentration of DMSO 0.1%), and place in a cell incubator at 37°C, 5% CO2 for 6 days. • 15. […] Protect from light during the whole process. Perform optical signal readings using a SpectraMax i3x reader. • 16. Data analysis: Remaining activity (%) = 100% * (1 - ((LumDMSO - Lummedium) - Lumsample) / (LumDMSO - LumPBS/medium)). Use GraphPad Prism 9.0 software to draw an S-shaped dose-survival rate curve and calculate the IC50 value using a nonlinear regression model.

[3] = 100 nM compound, Jurkat cells, 24 h, Table 2
[4] = 1 µM compound, Jurkat cells, 24 h, Table 2
[5] = NCI-H82, H82 cells, 4000 cells/well, CellTiter-Glo, read-out: IC50 in H82 Cells
[6] = NCI-H82, read-out: IC50 in H82 Cells

Compound | Percentage of AURKA Degradation Induced by 100 nM Compound in Jurkat Cells [1, 3] | Percentage of AURKA Degradation Induced by 1 µM Compound in Jurkat Cells [1, 4] | IC50 [2, 5] | Percentage of AURKA Degradation Induced by 100 nM Compound in Jurkat Cells [1] | Percentage of AURKA Degradation Induced by 1 µM Compound in Jurkat Cells [1] | IC50 [2, 6]
O=C1CCN(c2ccnc(N3CCN(CC#Cc4cccc(Nc5ncc6c(n5)-c5ccc(Cl)cc5C(c5c(F)cccc5F)=NC6)c4)CC3)c2)C(=O)N1 [Compound A130] | ++ (30% < Degradation ≤ 70%) | ++ (30% < Degradation ≤ 70%) | < 1000 nM |  |  | 
O=C1CCN(c2cncc(N3CCN(CC#Cc4cccc(Nc5ncc6c(n5)-c5ccc(Cl)cc5C(c5c(F)cccc5F)=NC6)c4)CC3)c2)C(=O)N1 [Compound A131] | +++ (Degradation > 70%) | +++ (Degradation > 70%) | < 1000 nM |  |  | 
O=C1CCN(c2ccc(N3CCC(N4CCN(c5ccc(Nc6ncc7c(n6)-c6ccc(Cl)cc6C(c6c(F)cccc6F)=NC7)cc5)C(=O)C4)CC3)nc2)C(=O)N1 [Compound A132] |  |  |  | +++ (key: +: Degradation ≤ 30%; ++: 30% < Degradation ≤ 70%; +++: Degradation > 70%) | +++ (key: +: Degradation ≤ 30%; ++: 30% < Degradation ≤ 70%; +++: Degradation > 70%) | < 1000 nM
O=C1CCN(c2cccc(N3CC(CC#Cc4cccc(Nc5ncc6c(n5)-c5ccc(Cl)cc5C(c5c(F)cccc5F)=NC6)c4)C3)c2)C(=O)N1 [Compound A133] | ++ (30% < Degradation ≤ 70%) | +++ (Degradation > 70%) | < 1000 nM |  |  | 
O=C1CCN(c2cnc(N3CCN(CCNC(=O)c4ccc(Nc5ncc6c(n5)-c5ccc(C7CC7)cc5C(c5c(F)cccc5F)=NC6)cc4)CC3)s2)C(=O)N1 [Compound A134] | +++ (Degradation > 70%) | ++ (30% < Degradation ≤ 70%) | < 1000 nM |  |  | 
CN(CCN1CCN(c2ncc(N3CCC(=O)NC3=O)s2)CC1)C(=O)c1ccc(Nc2ncc3c(n2)-c2ccc(C4CC4)cc2C(c2c(F)cccc2F)=NC3)cc1 [Compound A135] | +++ (Degradation > 70%) | ++ (30% < Degradation ≤ 70%) | < 1000 nM |  |  | 
CN(CCN1CCN(c2ccc(N3CCC(=O)NC3=O)cc2)CC1)C(=O)c1ccc(Nc2ncc3c(n2)-c2ccc(C4CC4)cc2C(c2c(F)cccc2F)=NC3)cc1 [Compound A136] | +++ (Degradation > 70%) | +++ (Degradation > 70%) | < 1000 nM |  |  | 
COc1ccccc1C1=NCc2cnc(Nc3ccc(C(=O)NC4CC5(CCN(c6ccc(N7CCC(=O)NC7=O)cn6)CC5)C4)cc3)nc2-c2ccncc21 [Compound A137] | +++ (Degradation > 70%) | +++ (Degradation > 70%) | < 1000 nM |  |  | 
O=C1CCN(c2ccc(N3CCC4(CC3)CC(NC(=O)c3ccc(Nc5ncc6c(n5)-c5ccncc5C(c5ccccc5F)=NC6)cc3)C4)nc2)C(=O)N1 [Compound A138] | +++ (Degradation > 70%) | +++ (Degradation > 70%) | 1000 to 10000 nM |  |  | 
O=C1CCN(c2cccc(N3CC(CN4CCN(c5cccc(Nc6ncc7c(n6)-c6ccc(Cl)cc6C(c6c(F)cccc6F)=NC7)c5)CC4)C3)c2)C(=O)N1 [Compound A140] | +++ (Degradation > 70%) | +++ (Degradation > 70%) | < 1000 nM |  |  | 
O=C1CCN(c2cccc(N3CCN(CC4CN(c5cccc(Nc6ncc7c(n6)-c6ccc(Cl)cc6C(c6c(F)cccc6F)=NC7)c5)C4)CC3)c2)C(=O)N1 [Compound A141] | +++ (Degradation > 70%) | +++ (Degradation > 70%) | < 1000 nM |  |  | 
O=C1CCN(c2ccc(N3CCC4(CC3)CC(NC(=O)c3ccc(Nc5ncc6c(n5)-c5ccc(C7CC7)cc5C(c5ccccc5Cl)=NC6)cc3)C4)nc2)C(=O)N1 [Compound A142] | +++ (Degradation > 70%) | +++ (Degradation > 70%) | < 1000 nM |  |  | 
O=C1CCN(c2cccc(N3CCC(CN4CC(c5cccc(Nc6ncc7c(n6)-c6ccc(Cl)cc6C(c6c(F)cccc6F)=NC7)c5)C4)CC3)c2)C(=O)N1 [Compound A143] | +++ (Degradation > 70%) | +++ (Degradation > 70%) | < 1000 nM |  |  | 
O=C1CCN(c2cccc(C3CCN(CCOc4cccc(Nc5ncc6c(n5)-c5ccc(Cl)cc5C(c5c(F)cccc5F)=NC6)c4)C3)c2)C(=O)N1 (stereo not drawn) [Compound A144] | + (Degradation ≤ 30%) | + (Degradation ≤ 30%) | < 1000 nM |  |  | 
O=C1CCN(c2cccc(N3CCN(Cc4cccc(Nc5ncc6c(n5)-c5ccc(Cl)cc5C(c5c(F)cccc5F)=NC6)c4)CC3)c2)C(=O)N1 [Compound A146] | ++ (30% < Degradation ≤ 70%) | + (Degradation ≤ 30%) | < 1000 nM |  |  | 
O=C1CCN(c2cccc(N3CCN(CCc4cccc(Nc5ncc6c(n5)-c5ccc(Cl)cc5C(c5c(F)cccc5F)=NC6)c4)CC3)c2)C(=O)N1 [Compound A147] | +++ (Degradation > 70%) | +++ (Degradation > 70%) | < 1000 nM |  |  | 
O=C1CCN(c2cccc(N3CCN(CCOc4cccc(Nc5ncc6c(n5)-c5ccc(C7CC7)cc5C(c5c(F)cccc5F)=NC6)c4)CC3)c2)C(=O)N1 [Compound A148] | +++ (Degradation > 70%) | +++ (Degradation > 70%) | < 1000 nM |  |  | 
Cn1c(CN2CCN(c3ncc(N4CCC(=O)NC4=O)s3)CC2)cnc1-c1ccc(Nc2ncc3c(n2)-c2ccc(Cl)cc2C(c2c(F)cccc2F)=NC3)cc1 [Compound A149] | +++ (Degradation > 70%) | +++ (Degradation > 70%) | < 1000 nM |  |  | 
O=C1CCN(c2cccc(N3CCC(N4CC(c5cccc(Nc6ncc7c(n6)-c6ccc(Cl)cc6C(c6c(F)cccc6F)=NC7)c5)C4)CC3)c2)C(=O)N1 [Compound A151] | ++ (30% < Degradation ≤ 70%) | + (Degradation ≤ 30%) | < 1000 nM |  |  | 
Cc1c(N2CCN(CCc3cccc(Nc4ncc5c(n4)-c4ccc(Cl)cc4C(c4c(F)cccc4F)=NC5)c3)CC2)cccc1N1CCC(=O)NC1=O [Compound A155] | ++ (30% < Degradation ≤ 70%) | ++ (30% < Degradation ≤ 70%) | < 1000 nM |  |  | 
Cc1c(N2CC(C#Cc3cccc(Nc4ncc5c(n4)-c4ccc(Cl)cc4C(c4c(F)cccc4F)=NC5)c3)C2)cccc1N1CCC(=O)NC1=O [Compound A156] |  |  |  | + (key: +: Degradation ≤ 30%; ++: 30% < Degradation ≤ 70%; +++: Degradation > 70%) | + (key: +: Degradation ≤ 30%; ++: 30% < Degradation ≤ 70%; +++: Degradation > 70%) | 1000 to 10000 nM
O=C1CCN(c2cnc(N3CCN(CCN4Cc5cc(Nc6ncc7c(n6)-c6ccc(Cl)cc6C(c6c(F)cccc6F)=NC7)ccc5C4=O)CC3)s2)C(=O)N1 [Compound A157] | ++ (30% < Degradation ≤ 70%) | + (Degradation ≤ 30%) | < 1000 nM |  |  | 
O=C1CCN(c2ccc(N3CCN(CCN4Cc5cc(Nc6ncc7c(n6)-c6ccc(Cl)cc6C(c6c(F)cccc6F)=NC7)ccc5C4=O)CC3)cc2)C(=O)N1 [Compound A158] | ++ (30% < Degradation ≤ 70%) | + (Degradation ≤ 30%) | < 1000 nM |  |  | 
